The results in this text go back to patent publication US8999940B2 (Ipsen Pharma S.A.S., priority 2008, dated 2015).

A word on the Ki: it is the dissociation constant of the complex between target and ligand, obtained from inhibition or displacement.

The target in data set [1] is T1, human recombinant GIP receptor (Homo sapiens, UniProt P48546).
T1 construct: expressed in transfected cells; host or cells: CHO-K1 clonal cells (membrane preparation)
T1 sequence (P48546 22-466): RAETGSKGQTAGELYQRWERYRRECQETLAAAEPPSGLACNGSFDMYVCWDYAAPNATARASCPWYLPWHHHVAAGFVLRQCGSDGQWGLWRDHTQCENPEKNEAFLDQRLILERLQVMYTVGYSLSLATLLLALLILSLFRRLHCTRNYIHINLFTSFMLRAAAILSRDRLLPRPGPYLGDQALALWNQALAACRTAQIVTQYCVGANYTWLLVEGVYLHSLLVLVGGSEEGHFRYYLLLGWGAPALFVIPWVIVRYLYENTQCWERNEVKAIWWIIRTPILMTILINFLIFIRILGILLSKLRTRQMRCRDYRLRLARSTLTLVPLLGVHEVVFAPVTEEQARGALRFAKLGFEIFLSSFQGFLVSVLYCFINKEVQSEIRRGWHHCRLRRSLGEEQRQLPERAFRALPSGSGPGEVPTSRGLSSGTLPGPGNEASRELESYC
The experiment in a line: In vitro hGIP receptor binding assay. The method, then: A. In Vitro hGIP Receptor Binding Assay […] The incubations were terminated by rapid filtration through GF/C filters (pre-soaked in 0.5% polyethylenimine) using a Brandel filtration manifold. Each tube and filter were then washed three times with 5-ml aliquots of ice-cold buffer.

The nature of data set [2]: Human plasma half-life assay. The format is in vitro ADME. As to conditions: 37° C., LC-MS, read-out: Human Plasma T½ (converted).
Data set [3] in a line: Rat plasma half-life assay. The format is in vitro ADME. As to conditions: 37° C., LC-MS, read-out: Rat Plasma T½ (converted).

A value given as a limit tells only on which side of the number the result lay.

Consider `CCCC[C@H](NC(=O)[C@H](C)NC(=O)[C@@H](NC(=O)C1(NC(=O)[C@H](Cc2ccc(O)cc2)NC(=O)[C@H](CC(=O)O)NC(=O)[C@H](CO)NC(=O)[C@@H](NC(=O)[C@H](Cc2ccccc2)NC(=O)[C@@H](NC(=O)CNC(=O)[C@H](CCC(=O)O)NC(=O)C(C)(C)NC(=O)[C@@H](N)Cc2ccc(N)cc2)[C@@H](C)O)[C@@H](C)CC)CCCC1)[C@@H](C)CC)C(=O)N[C@@H](CC(=O)O)C(=O)N[C@@H](CCCCN)C(=O)N[C@H](C(=O)N[C@@H](Cc1c[nH]cn1)C(=O)N[C@@H](CCC(N)=O)C(=O)N[C@@H](CCC(N)=O)C(=O)N[C@@H](CC(=O)O)C(=O)N[C@@H](Cc1ccccc1)C(=O)N[C@H](C(=O)N[C@@H](CC(N)=O)C(=O)N[C@@H](Cc1c[nH]c2ccccc12)C(=O)N[C@@H](CC(C)C)C(=O)N[C@@H](CC(C)C)C(=O)N[C@@H](C)C(=O)N[C@@H](CCC(N)=O)C(=O)N[C@@H](CCCCN)C(=O)NCC(=O)N[C@@H](CCCCN)C(=O)N[C@@H](CCCCN)C(=O)N[C@@H](CC(N)=O)C(=O)N[C@@H](CC(=O)O)C(=O)N[C@@H](Cc1c[nH]c2ccccc12)C(=O)N[C@@H](CCCCN)C(=O)N[C@@H](Cc1c[nH]cn1)C(=O)N[C@@H](CC(N)=O)C(=O)N[C@H](C(=O)N[C@H](C(=O)N[C@@H](CCC(N)=O)C(=O)O)[C@@H](C)O)[C@@H](C)CC)C(C)C)[C@@H](C)CC` [Example 18, (4NH2-Phe^1, Aib^2, A5c^11, Nle^14)hGIP(1-42)-OH], for which the Ki in data set [1] came out at 3.4 nM. The half-life at 0.1 mg/ml is more than 72 h in data set [2] and 32.1 h in data set [3].
For `CC[C@H](C)[C@H](NC(=O)[C@H](CCCCN)NC(=O)[C@H](CC(=O)O)NC(=O)[C@H](CCSC)NC(=O)[C@H](C)NC(=O)[C@@H](NC(=O)C1(NC(=O)[C@H](Cc2ccc(O)cc2)NC(=O)[C@H](CC(=O)O)NC(=O)[C@H](CO)NC(=O)[C@@H](NC(=O)[C@H](Cc2ccccc2)NC(=O)[C@@H](NC(=O)CNC(=O)[C@H](CCC(=O)O)NC(=O)C(C)(C)NC(=O)[C@@H](N)Cc2ccc(C#N)cc2)[C@@H](C)O)[C@@H](C)CC)CCCC1)[C@@H](C)CC)C(=O)N[C@@H](Cc1c[nH]cn1)C(=O)N[C@@H](CCC(N)=O)C(=O)N[C@@H](CCC(N)=O)C(=O)N[C@@H](CC(=O)O)C(=O)N[C@@H](Cc1ccccc1)C(=O)N[C@H](C(=O)N[C@@H](CC(N)=O)C(=O)N[C@@H](Cc1c[nH]c2ccccc12)C(=O)N[C@@H](CC(C)C)C(=O)N[C@@H](CC(C)C)C(=O)N[C@@H](C)C(=O)N[C@@H](CCC(N)=O)C(=O)N[C@@H](CCCCN)C(=O)NCC(=O)N[C@@H](CCCCN)C(=O)N[C@@H](CCCCN)C(=O)N[C@@H](CC(N)=O)C(=O)N[C@@H](CC(=O)O)C(=O)N[C@@H](Cc1c[nH]c2ccccc12)C(=O)N[C@@H](CCCCN)C(=O)N[C@@H](Cc1c[nH]cn1)C(=O)N[C@@H](CC(N)=O)C(=O)N[C@H](C(=O)NC1(C(=O)N[C@@H](CCC(N)=O)C(=O)O)CCCC1)[C@@H](C)CC)C(C)C` [Example 38, (4CN-Phe^1, Aib^2, A5c^11, 41)hGIP(1-42)-OH] the same measures were 14.4 nM, 16.4 h and more than 72 h.
For `CC[C@H](C)[C@H](NC(=O)[C@H](CCCCN)NC(=O)[C@H](CC(=O)O)NC(=O)[C@H](CCSC)NC(=O)[C@H](C)NC(=O)[C@@H](NC(=O)C1(NC(=O)[C@H](Cc2ccc(O)cc2)NC(=O)[C@H](CC(=O)O)NC(=O)[C@H](CO)NC(=O)[C@@H](NC(=O)[C@H](Cc2ccccc2)NC(=O)[C@@H](NC(=O)CNC(=O)[C@H](CCC(=O)O)NC(=O)C(C)(C)NC(=O)[C@@H](N)Cc2cscn2)[C@@H](C)O)[C@@H](C)CC)CCCC1)[C@@H](C)CC)C(=O)N[C@@H](Cc1c[nH]cn1)C(=O)N[C@@H](CCC(N)=O)C(=O)N[C@@H](CCC(N)=O)C(=O)N[C@@H](CC(=O)O)C(=O)N[C@@H](Cc1ccccc1)C(=O)N[C@H](C(=O)N[C@@H](CC(N)=O)C(=O)N[C@@H](Cc1c[nH]c2ccccc12)C(=O)N[C@@H](CC(C)C)C(=O)N[C@@H](CC(C)C)C(=O)N[C@@H](C)C(=O)N[C@@H](CCC(N)=O)C(=O)N[C@@H](CCCCN)C(=O)NCC(=O)N[C@@H](CCCCN)C(=O)N[C@@H](CCCCN)C(=O)N[C@@H](CC(N)=O)C(=O)N[C@@H](CC(=O)O)C(=O)N[C@@H](Cc1c[nH]c2ccccc12)C(=O)N[C@@H](CCCCN)C(=O)N[C@@H](Cc1c[nH]cn1)C(=O)N[C@@H](CC(N)=O)C(=O)N[C@H](C(=O)NC1(C(=O)N[C@@H](CCC(N)=O)C(=O)O)CCCC1)[C@@H](C)CC)C(C)C` [Example 35, (Taz^1, Aib^2, A5c^11, 41)hGIP(1-42)-OH] the same measures were 3.28 nM, 74.5 h and 50.6 h.
For the compound `CC[C@H](C)[C@H](NC(=O)[C@H](CCCCN)NC(=O)[C@H](CC(=O)O)NC(=O)[C@H](CCSC)NC(=O)[C@H](C)NC(=O)[C@@H](NC(=O)C1(NC(=O)[C@H](Cc2ccc(O)cc2)NC(=O)[C@H](CC(=O)O)NC(=O)[C@H](CO)NC(=O)[C@@H](NC(=O)[C@H](Cc2ccccc2)NC(=O)[C@@H](NC(=O)CNC(=O)[C@H](CCC(=O)O)NC(=O)C(C)(C)NC(=O)[C@@H](N)Cc2cccc(O)c2)[C@@H](C)O)[C@@H](C)CC)CCCC1)[C@@H](C)CC)C(=O)N[C@@H](Cc1c[nH]cn1)C(=O)N[C@@H](CCC(N)=O)C(=O)N[C@@H](CCC(N)=O)C(=O)N[C@@H](CC(=O)O)C(=O)N[C@@H](Cc1ccccc1)C(=O)N[C@H](C(=O)N[C@@H](CC(N)=O)C(=O)N[C@@H](Cc1c[nH]c2ccccc12)C(=O)N[C@@H](CC(C)C)C(=O)N[C@@H](CC(C)C)C(=O)N[C@@H](C)C(=O)N[C@@H](CCC(N)=O)C(=O)N[C@@H](CCCCN)C(=O)NCC(=O)N[C@@H](CCCCN)C(=O)N[C@@H](CCCCN)C(=O)N[C@@H](CC(N)=O)C(=O)N[C@@H](CC(=O)O)C(=O)N[C@@H](Cc1c[nH]c2ccccc12)C(=O)N[C@@H](CCCCN)C(=O)N[C@@H](Cc1c[nH]cn1)C(=O)N[C@@H](CC(N)=O)C(=O)N[C@H](C(=O)NC1(C(=O)N[C@@H](CCC(N)=O)C(=O)O)CCCC1)[C@@H](C)CC)C(C)C` [Example 26, (30H-Phe^1, Aib^2, A5c^11, 41)hGIP(1-42)-OH], the Ki in data set [1] was 7.52 nM. In addition, the half-life at 0.1 mg/ml in data set [2] was 26.2 h; in data set [3], 48.8 h.
As to `CC[C@H](C)[C@H](NC(=O)[C@H](CCCCN)NC(=O)[C@H](CC(=O)O)NC(=O)[C@H](CCSC)NC(=O)[C@H](C)NC(=O)[C@@H](NC(=O)C1(NC(=O)[C@H](Cc2ccc(O)cc2)NC(=O)[C@H](CC(=O)O)NC(=O)[C@H](CO)NC(=O)[C@@H](NC(=O)[C@H](Cc2ccccc2)NC(=O)[C@@H](NC(=O)CNC(=O)[C@H](CCC(=O)O)NC(=O)C(C)(C)NC(=O)[C@@H](N)Cc2ccc(F)cc2)[C@@H](C)O)[C@@H](C)CC)CCCC1)[C@@H](C)CC)C(=O)N[C@@H](Cc1c[nH]cn1)C(=O)N[C@@H](CCC(N)=O)C(=O)N[C@@H](CCC(N)=O)C(=O)N[C@@H](CC(=O)O)C(=O)N[C@@H](Cc1ccccc1)C(=O)N[C@H](C(=O)N[C@@H](CC(N)=O)C(=O)N[C@@H](Cc1c[nH]c2ccccc12)C(=O)N[C@@H](CC(C)C)C(=O)N[C@@H](CC(C)C)C(=O)N[C@@H](C)C(=O)N[C@@H](CCC(N)=O)C(=O)N[C@@H](CCCCN)C(=O)NCC(=O)N[C@@H](CCCCN)C(=O)N[C@@H](CCCCN)C(=O)N[C@@H](CC(N)=O)C(=O)N[C@@H](CC(=O)O)C(=O)N[C@@H](Cc1c[nH]c2ccccc12)C(=O)N[C@@H](CCCCN)C(=O)N[C@@H](Cc1c[nH]cn1)C(=O)N[C@@H](CC(N)=O)C(=O)N[C@H](C(=O)NC1(C(=O)N[C@@H](CCC(N)=O)C(=O)O)CCCC1)[C@@H](C)CC)C(C)C` [Example 32, (4F-Phe^1, Aib^2, A5c^11, 41)hGIP(1-42)-OH], the inhibition constant (Ki) in data set [1] came out at 5.82 nM. Moreover, the figures for the half-life at 0.1 mg/ml in data set [2] and in data set [3] were 23.9 h and more than 61 h, respectively.
The matching figures for `CC[C@H](C)[C@H](NC(=O)[C@H](CCCCN)NC(=O)[C@H](CC(=O)O)NC(=O)[C@H](CCSC)NC(=O)[C@H](C)NC(=O)[C@@H](NC(=O)C1(NC(=O)[C@H](Cc2ccc(O)cc2)NC(=O)[C@H](CC(=O)O)NC(=O)[C@H](CO)NC(=O)[C@@H](NC(=O)[C@H](Cc2ccccc2)NC(=O)[C@@H](NC(=O)CNC(=O)[C@H](CCC(=O)O)NC(=O)C(C)(C)NC(=O)[C@@H](N)Cc2ccncc2)[C@@H](C)O)[C@@H](C)CC)CCCC1)[C@@H](C)CC)C(=O)N[C@@H](Cc1c[nH]cn1)C(=O)N[C@@H](CCC(N)=O)C(=O)N[C@@H](CCC(N)=O)C(=O)N[C@@H](CC(=O)O)C(=O)N[C@@H](Cc1ccccc1)C(=O)N[C@H](C(=O)N[C@@H](CC(N)=O)C(=O)N[C@@H](Cc1c[nH]c2ccccc12)C(=O)N[C@@H](CC(C)C)C(=O)N[C@@H](CC(C)C)C(=O)N[C@@H](C)C(=O)N[C@@H](CCC(N)=O)C(=O)N[C@@H](CCCCN)C(=O)NCC(=O)N[C@@H](CCCCN)C(=O)N[C@@H](CCCCN)C(=O)N[C@@H](CC(N)=O)C(=O)N[C@@H](CC(=O)O)C(=O)N[C@@H](Cc1c[nH]c2ccccc12)C(=O)N[C@@H](CCCCN)C(=O)N[C@@H](Cc1c[nH]cn1)C(=O)N[C@@H](CC(N)=O)C(=O)N[C@H](C(=O)NC1(C(=O)N[C@@H](CCC(N)=O)C(=O)O)CCCC1)[C@@H](C)CC)C(C)C` [Example 33, (4-Pal^1, Aib^2, A5c^11, 41)hGIP(1-42)-OH]: 8.14 nM, 32.8 h and 15.5 h.
